Assay [1] concerns mushroom tyrosinase. The following applies: cited from earlier work.
Assay [2] has as its target α-glucosidase. Kind of assay: α-Glucosidase inhibitory activity. The assay is classed as biochemical, Saccharomyces cerevisiae. The following applies: substrate p-nitrophenyl-α-D-glucopyranoside, 37 °C, pH 6.8, triplicate; for IC50: read-out: Enzyme Inhibitory Activities α-Glucosidase IC50. An excerpt: (§1) 1,1-Diphenyl-2-picrylhydrazyl (DPPH) and the enzymes α-glucosidase (from Saccharomyces cerevisiae), porcine pancreatic lipase, and mushroom tyrosinase were purchased from Sigma Aldrich, Co. (Tokyo, Japan). […] Cetilistat was obtained from Combi-Blocks, San Diego, USA, and arbutin was purchased from Nacalai Tesque, Inc. (Kyoto, Japan). 2-Morpholinoethanesulfonic acid monohydrate (MES) was purchased from Dojindo Chemical Research (Kumamoto, Japan).
The α-glucosidase inhibitory activity was determined according to the method reported by Jabeen et al. with slight modifications. In 96-well plate, 60 μL of 0.2 M phosphate buffer (pH = 6.8), 10 μL of the test sample (final concentration range of 100 to 1.56 μg/mL), and 10 μL of α-glucosidase solution (prepared in phosphate buffer to obtain 1 U/mL) were added. The mixture was incubated at 37 °C for 5 min and 20 μL of 4 mM p-nitrophenyl-α-D-glucopyranoside substrate were added. After 12 min of incubation at 37 °C, the released p-nitrophenol was measured at 405 nm using a spectrophotometer. The percentage inhibition of α-glucosidase activity was calculated using the equation: Inhibition (%) = (1 − (Aa − Ab)/(Ac − Ad)) × 100, in which Aa is the absorbance with test sample and enzyme, Ab is the absorbance with test samples but without enzyme, Ac is the absorbance with enzyme but without test sample, and Ad is the absorbance without test samples and enzymes.
(§2) All the experiments were performed in triplicate. The data was analyzed using Microsoft Office Excel (2007) and results for DPPH free radical and in vitro enzyme inhibitory activities were expressed as IC50 value (μM).

Assay [3] in a line: DPPH free radical scavenging activity. As to conditions: 20 min, room temperature, absorbance at 520 nm, triplicate. How it is done: The antioxidant potential was determined using the 1,1- diphenyl-2-picrylhydrazyl (DPPH) radical scavenging method with minor modifications. In a 96-well plate, 25 μL of compound solution of different concentrations were added, followed by the addition of 75 μL of 50% EtOH and 50 μL MES buffer (200 mM, pH = 6.0). Finally, 50 μL of freshly prepared DPPH solution in ethanol (800 μM) were added, and the assay plate was incubated for 20 min in the dark at room temperature. The antioxidant activity corresponding to scavenging of DPPH radicals was measured at 520 nm with UV spectrophotometer using the following formula: Radical scavenging activity (%) = 100 × (A − B)/A, where A is the control absorbance of DPPH radicals without samples and B is the absorbance after reacting with samples. Trolox was used as the positive control.
as §2
(In general: DPPH is a stable violet radical that fades when it is reduced.)

The target in assay [4] is T1, porcine pancreatic lipase (Sus scrofa, UniProt P00591).
T1 construct: purchased Sigma Aldrich, Co. (Tokyo, Japan)
T1 sequence (P00591 1-450): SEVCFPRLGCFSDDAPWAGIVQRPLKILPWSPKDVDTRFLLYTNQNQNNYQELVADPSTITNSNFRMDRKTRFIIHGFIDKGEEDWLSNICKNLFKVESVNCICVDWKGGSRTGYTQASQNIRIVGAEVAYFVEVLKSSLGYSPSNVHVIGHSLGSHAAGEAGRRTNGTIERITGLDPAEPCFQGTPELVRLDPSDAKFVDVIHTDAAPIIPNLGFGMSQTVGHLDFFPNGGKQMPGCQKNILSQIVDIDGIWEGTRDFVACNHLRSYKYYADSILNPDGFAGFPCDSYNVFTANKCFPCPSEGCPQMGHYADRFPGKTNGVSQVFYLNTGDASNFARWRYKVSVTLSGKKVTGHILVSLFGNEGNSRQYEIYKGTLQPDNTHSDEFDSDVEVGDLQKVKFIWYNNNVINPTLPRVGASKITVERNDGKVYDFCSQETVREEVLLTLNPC
Kind of assay: Pancreatic lipase inhibitory activity. It counts as biochemical. As to conditions: substrate 4-methylumbelliferyl oleate, pH 7.4, triplicate; for IC50: read-out: Enzyme Inhibitory Activities Lipase IC50.
Source text: as §1
Evaluation of pancreatic lipase inhibitory activity was performed by measuring the release of 4-methylumbelliferone (4MUF) from the substrate 4-methylumbelliferyl oleate (4MUFO) as reported by Bitou et al. with slight modifications. Briefly, 50 μL of the test sample and 50 μL of pancreatic lipase (100 μg/mL in phosphate buffer of 0.2 M, pH 7.4) were mixed and incubated at room temperature for 10 min. Afterward, 100 μL of the substrate 4MUFO (0.5 mM) was added. After 10 min, the fluorescence from the release of 4MUF was measured using a microplate reader with excitation and emission wavelengths of 355 and 460 nm, respectively. Cetilistat was used as the positive control. The percentage of pancreatic lipase inhibitory activity was calculated using the following equation: Inhibition (%) = (1 − (As/Ac) × 100), where As and Ac are the absorbance of sample and control, respectively.
as §2

For assay [5], the target named is mushroom tyrosinase. Kind of assay: Tyrosinase inhibitory activity. The assay is classed as biochemical, Agaricus bisporus. The following applies: substrate L-tyrosine, 25 °C, pH 6.8, triplicate; read-out: Enzyme Inhibitory Activities Tyrosinase IC50. From the text:
Antioxidants are substances that scavenge free radicals and related reactive species. Free radicals amend vital body composition such as lipids and proteins, resulting in serious conditions such as inflammatory conditions, atherosclerosis, and cancerous diseases. Therefore, dietary antioxidants are undertaken for enhancing health conditions for people under precarious sanitary conditions or to prevent serious and chronic illnesses such as neurodegenerative diseases, diabetes, and hyperlipidemia. Diabetes mellitus (DM) is a metabolic disorder characterized by high blood glucose, which is likely to cause serious side effects such as retinopathy and cataracts. […] Obesity is another example of a metabolic disorder associated with several co-morbidities, with an increasing prevalence every year. Excessive lipid accumulation could be one of the causative factors for type II diabetes, as the accumulation of lipid in the pancreas causes dysfunction of insulin-producing pancreatic β-cells. […] Tyrosinase is a key enzyme in the process of melanin synthesis. It has been isolated and identified from different sources. Among them, mushroom tyrosinase, from Agaricus bisporus, is a major source and is widely used due to its high similarity and homology to human tyrosinase. Despite the important protective role of melanin against UV-sunlight radiation, excess accumulation of this pigment results in harmful skin disorders and severe cases may cause skin cancer. […] (Tokyo, Japan). […] obtained from Combi-Blocks, San Diego, USA, and arbutin was purchased from Nacalai Tesque, Inc. (Kyoto, Japan). 2-Morpholinoethanesulfonic acid monohydrate (MES) was purchased from Dojindo Chemical Research (Kumamoto, Japan). The tyrosinase inhibitory activity was evaluated using the method reported by […] et al., with slight modifications. […] The mixture was incubated at 25 °C for 10 min. Finally, 20 μL of the substrate L-tyrosine (2 mM) were added, and the absorbance was measured at 476 nm. […] Arbutin was used as the positive control. […] All the experiments were performed in triplicate. The data was analyzed using Microsoft Office Excel (2007) and results for DPPH free radical and in vitro enzyme inhibitory activities were expressed as IC50 value (μM).

Assay [6] deals with α-glucosidase. Further details: method as in PMID 27581205. As to conditions: cited from earlier work.

As to `COc1cc(C(=O)O)ccc1O` [Vanillic acid (2), vanillic acid], in the assay with mushroom tyrosinase [1], the “inhibitory activity for mushroom tyrosinase” value was “did not show any inhibitory activity” and the tyrosinase inhibitory activity entry is reported as “weak”. Besides, the “Enzyme Inhibitory Activities α-Glucosidase IC50” value at α-glucosidase [2] is given as “neither showed inhibitory activities”. In assay [3], this molecule gave an IC50 of 217 ± 3.01 µM. The “Enzyme Inhibitory Activities Lipase IC50” value in assay [4] is “inactive”.

As to `O=C(/C=C/c1ccc(O)cc1)OC[C@H]1O[C@@H](Oc2cc(O)c3c(c2)OC(c2ccc(O)cc2)CC3=O)[C@H](O)[C@@H](O)[C@@H]1O` (some centres unmarked) [6″-O-p-Coumaroylprunin (4), 6″-O-p-coumaroylprunin], the IC50 at mushroom tyrosinase [5] turned out to be 136.1 ± 0.78 µM; at α-glucosidase [2] it was 46.3 ± 2.92 µM; in assay [3] it was 186.2 ± 1.19 µM; in assay [4] it was 2.25 ± 0.17 µM. For the same molecule, the “Enzyme Inhibitory Activities Lipase IC50” value in assay [4] is on record as “active”.

`Cc1c(C)c2c(c(C)c1O)CCC(C)(C(=O)O)O2` (centres unmarked) [Trolox, 6-Hydroxy-2,5,7,8-tetramethylchroman-2-carboxylic acid, reference compound] displayed an IC50 in assay [3] of 39.07 ± 0.31 µM.

On to `CCCCCCCCCCCCCCCCOc1nc2ccc(C)cc2c(=O)o1` [Cetilistat, reference compound], for which the IC50 in assay [4] came out at 18.4 ± 1.71 µM.

Turning to `OC[C@H]1O[C@@H](Oc2ccc(O)cc2)[C@H](O)[C@@H](O)[C@@H]1O` [Arbutin, arbutin, reference compound], at mushroom tyrosinase [5], the 50% inhibitory concentration (IC50) was 436 ± 3.71 µM.

In the case of `O=c1cc(-c2ccc(O)cc2)oc2cc(O)cc(O)c12` [Apigenin (3), apigenin], the IC50 at mushroom tyrosinase [5] was 23.1 ± 1.83 µM; on α-glucosidase [2], 34.7 ± 1.78 µM; in assay [3], 386.3 ± 3.42 µM; in assay [4] it was 12.5 ± 2.04 µM. The “mode of α-glucosidase inhibition” value in the assay with α-glucosidase [6] is listed as “reversibly inhibit α-glucosidase in a noncompetitive manner”. Also, the “Enzyme Inhibitory Activities Lipase IC50” value in assay [4] was “active”.

Consider `C[C@@H]1O[C@@H](O[C@@H]2[C@@H](O)[C@H](OCCc3ccc(O)c(O)c3)O[C@H](CO)[C@H]2OC(=O)/C=C/c2ccc(O)c(O)c2)[C@H](O)[C@H](O)[C@H]1O` [Verbascoside (1), verbascoside], for which the IC50 on mushroom tyrosinase [5] worked out at 97.4 ± 2.48 µM; in assay [3], 22.03 ± 0.04 µM. Also, the “Enzyme Inhibitory Activities α-Glucosidase IC50” value at α-glucosidase [2] is listed as “neither showed inhibitory activities”. In assay [4], the “Enzyme Inhibitory Activities Lipase IC50” value is “inactive”.

Broadly, the IC50 is the concentration needed to halve the response being measured.

(Values after publication PMC6963822, “Phenolic Compounds from the Aerial Parts of Blepharis linariifolia Pers. and Their Free Radical Scavenging and Enzyme Inhibitory Activities” (Medicines, 2019).)
